Experimental findings from patent US9562053B2, “Benzo-fused heterocyclic derivatives useful as agonists of GPR120” (Janssen Pharmaceutica NV, priority 2013, dated 2017) are described below.

The assay concerns the target T1, long form of human GPR120 (Homo sapiens, UniProt Q5NUL3).
T1 construct: host or cells: PathHunter CHO-K1 GPR120 β-Arrestin Cell Line
T1 sequence (Q5NUL3 1-377 isoform Q5NUL3-1): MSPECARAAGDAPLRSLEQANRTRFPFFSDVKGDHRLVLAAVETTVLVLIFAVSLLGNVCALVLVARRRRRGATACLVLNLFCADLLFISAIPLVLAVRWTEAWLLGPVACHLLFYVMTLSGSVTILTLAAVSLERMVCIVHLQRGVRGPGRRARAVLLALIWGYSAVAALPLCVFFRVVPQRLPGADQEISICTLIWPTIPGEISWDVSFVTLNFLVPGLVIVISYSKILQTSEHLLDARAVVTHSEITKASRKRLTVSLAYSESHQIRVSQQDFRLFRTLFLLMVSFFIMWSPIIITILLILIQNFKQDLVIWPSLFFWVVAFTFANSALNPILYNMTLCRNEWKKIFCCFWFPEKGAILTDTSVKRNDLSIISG
The experiment in a line: Human GPR120 DiscoveRx PathHunter Beta-Arrestin Assay, Procedure β-arrestin A (3000 cells per well). The conditions noted are these: read-out: GPR120 B-arrestin A EC50. It counts as cell-based. Put shortly: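 PathHunter CHO-K1 cells with long-form receptor, 3000/well, seeded overnight at 37 °C; equilibrated 60 min at 37 °C in HBSS/20 mM HEPES/0.1% BSA, pH 7.4. Compound serial dilutions (25–0.012 μM) added for 90 min at 37 °C, detection 60 min at room temperature, luminescence read; EC50 from % of positive control, Hill slope fixed at 1.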
Turning to `Cc1nc2cc(Cl)cc(COc3ccc(CCC(=O)O)c(C)c3C)c2o1` [Compound 84, 3-{4-[(5-Chloro-2-methyl-1,3-benzoxazol-7-yl)methoxy]-2,3-dimethylphenyl}propanoic acid], the EC50 was 434 nM. The figure for `CCOc1c(Cl)cc2cc(CC)oc2c1COc1ccc(CCC(=O)O)c(C)c1C` [Compound 62, 3-{4-[(5-Chloro-6-ethoxy-2-ethyl-1-benzofuran-7-yl)methoxy]-2,3-dimethylphenyl}propanoic acid] is 274 nM. The figure for `Cc1cc2cc(Cl)c(C)c(COc3c(F)cc(CCC(=O)O)cc3F)c2o1` [Compound 86, 3-{4-[(5-Chloro-2,6-dimethyl-1-benzofuran-7-yl)methoxy]-3,5-difluorophenyl}propanoic acid] is 460 nM.

For `CCCc1cc2cc(Cl)cc(COc3ccc(CCC(=O)O)c(F)c3F)c2o1` [Compound 59, 3-{4-[(5-Chloro-2-propyl-1-benzofuran-7-yl)methoxy]-2,3-difluorophenyl}propanoic acid], the EC50 amounted to 146 nM.
